Measurements taken from patent US7078398B2, “Compositions and methods for treating or preventing convulsions or seizures” (Vela Pharamaceuticals, Inc., priority 2001, dated 2006).
Entries after “also recorded” stand apart in the source; their conditions may differ. Read-outs that look alike come from different tables or passages of the source.

Key:
[1] = test system: picrotoxin-induced seizures in male NSA mice; assay: animal or person; assay type: in vivo; conditions: for anti-convulsant activity against picrotoxin-induced seizures (conclusion): NSA mice; for ED50: Mus musculus; for ED50 / ED50 (95% confidence limit): i.p. 15 minutes prior to picrotoxin 5 mg/kg s.c.
Method: Anticonvulsant activity against picrotoxin-induced seizures is considered evidence of clinical antiepileptic potential and reason for further evaluation of a test compound's anticonvulsant profile (Swinyard, E. A. et al., General principles: experimental detection, quantification and evaluation of anticonvulsants. In: Antiepileptic Drugs, D. M. Woodbury et al., eds. Raven Press, New York (1990) pp. 111–126).
Picrotoxin (5 mg/kg, Sigma Chem. Co., St. Louis, Mo., USA) was dissolved in saline and administered subcutaneously to induce seizures. In addition, picrotoxin alone was administered to seven animals as a control. All test drugs were dissolved in dimethylsulfoxide (DMSO).
After picrotoxin injection, mice were placed into a plexiglass cage for 30 minutes of observation. The appearance of seizures was defined as the presence of a single episode of clonic or tonic activity (including myoclonic jerks) during the 30 minute observation period. […] Animals were euthanized immediately after the observation period by CO2 inhalation. The ED50 (the dose of test compound at which half of the animals were protected against picrotoxin-induced seizures) values and their 95% confidence limits were calculated by the method of Litchfield and Wilcoxon (J. Pharmacol. Exp. Ther. 96:99–113 (1949)).

[2] = test system: convulsions induced by the compound Ro 5-4864 in mice; conditions: 100 mg/kg; cited from earlier work
[3] = test system: picrotoxin convulsions in Tuck No. 1 mice; conditions: cited from earlier work
[4] = test system: convulsions induced by tryptamine in mice; conditions: Table 6 of Ito; cited from earlier work
[5] = test system: pentylenetetrazole convulsions in Tuck No. 1 mice; conditions: cited from earlier work
[6] = Example 2, enantiomers of Example 1, 30 minute observation
[7] = Example 4, enantiomers of Example 3

Compound | anti-convulsant activity against picrotoxin-induced seizures (conclusion) ([1]; Example 2) | anti-convulsant activity (conclusion) ([1]; Example 4) | ED50 ([1]; read-out: ED50 (95% confidence limit), Example 2, enantiomers of Example 1, 30 minute observation) [mg/kg] | ED50 ([1]; read-out: ED50 (95% confidence limit), Example 4, enantiomers of Example 3) [mg/kg] | myoclonic jerks in treated mice [2] | number of mice having convulsions [2] | number or severity of convulsions ([3]; 10–50 mg/kg, 6 mg/kg of picrotoxin) | effect in combination with 3 mg/kg picrotoxin ([3]; 25–50 mg/kg) | incidence of convulsions [4] | effect as an anti-convulsant ([5]; 10–25 mg/kg, 60 mg/kg of pentylenetetrazole) | effect in combination with 30 mg/kg pentylenetetrazole ([5]; 25–50 mg/kg) | inhibition of picrotoxin-induced convulsions ([1]; Example 2, at either 20 or 50 mg/kg i.p.) | ED50 (95% confidence limit) [1, 6] | protection against picrotoxin-induced seizures ([1]; Example 4, 90 mg/kg) | protection against picrotoxin-induced seizures ([1]; Example 4, 128 mg/kg) | protection from picrotoxin-induced seizures, all doses tested ([1]; Example 4, 32-128 mg/kg) [%] | anticonvulsant activity ([1]; Example 4, doses of 32 mg/kg and 64 mg/kg) | ED50 (95% confidence limit) [1, 7] | protection against picrotoxin-induced seizures ([1]; Example 2, 40 mg/kg i.p.) | anti-convulsant activity compared with the racemate ([1]; Example 4, highly pure S-tofisopam)
CCC1C(C)=NN=C(c2ccc(OC)c(OC)c2)c2cc(OC)c(OC)cc21 (racemic) [tofisopam, 1-(3,4-dimethoxy-phenyl)-4-methyl-5-ethyl-7,8-dimethoxy-5H-2,3-benzodiazepine] | intrinsic anti-convulsant activity | intrinsic anti-convulsant activity | 37.8 | 51.4 | all of the treated mice still experienced myoclonic jerks | reduced the number of mice having convulsions | no affect | proconvulsant activity | no effect | no effect | proconvulsant activity | – | – | – | – | – | – | – | – | –
CC[C@H]1C(C)=NN=C(c2ccc(OC)c(OC)c2)c2cc(OC)c(OC)cc21 [R-tofisopam] | no anti-convulsant activity | – | – | – | – | – | – | – | – | – | – | did not inhibit | Inactive | no further increase in protection | no protection | < 50 | exhibits anticonvulsant activity | could not be calculated; also recorded: not calculable | – | –
CC[C@@H]1C(C)=NN=C(c2ccc(OC)c(OC)c2)c2cc(OC)c(OC)cc21 [S-tofisopam] | intrinsic anti-convulsant activity | intrinsic anti-convulsant activity | – | – | – | – | – | – | – | – | – | – | ~35 (28–43) mg/kg | – | – | – | – | 15.1 (7.6–30.1) mg/kg | over 60% | significantly greater anti-convulsant activity
